≈ marks a conversion by molar mass, not a printed value.

A short description of data set [1]: MTT cytotoxicity against raw macrophages. The format is cell-based, albino rats. The settings on record: albino, rat; for viability at 24 h, 1 µM / viability at 24 h, 10 µM / viability at 24 h, 50 µM / viability at 24 h, 100 µM: peritoneal macrophages (raw macrophages), raw macrophages, MTT, read-out: % Cell Viability; for IC50 at 24 h: primary peritoneal macrophages, mean ± SEM, n = 3. How it is done:
The % cell viability of the synthetic library was evaluated in vitro by measuring the mitochondrial dehydrogenase activity (MTT test) on raw macrophages.
The cytotoxic potential was assessed by using an MTT 3-(4,5-dimethyl thiazole-2-yl)-2,5- diphenyl tetrazolium bromide assay. Briefly, macrophages were extracted from the peritoneal cavity of albino rats and plated at a density of 1 × 10^6 per well in a 96-well plate and incubated in a 5% CO2 incubator at 37 °C for 24 h. The cells were treated with various concentrations of the test compounds (100 µM, 50 µM, 10 µM and 1 µM) or vehicle alone. The test compounds were first dissolved in DMSO to make a 100 mM stock solution and then further dilutions were made from this stock solution. After 24 h of incubation, 20 µL of MTT (1 mg/mL in normal saline) was added into each well and incubated under the same conditions for 2 h. Mitochondrial succinate dehydrogenase converted MTT in live cells into purple formazan crystals. The formazan crystals were then solubilized in 100 µL DMSO, and the absorbance was measured at 570 nm. The % cell viability was calculated by the following formula; % cell viability = (abssample − absblank)/(abscontrol − absblank) × 100

The next data set deals with α-amylase enzyme. The data set can be described thus: α-Amylase enzyme inhibitory assay. Type of data set: biochemical. The settings on record: 200 µg/mL. How it is done:
An in vitro α-amylase enzyme inhibitory assay was performed by the standard protocol. Four milligrams per 1 mL of sample was prepared in DMSO. In each well of a 96-well plate, synthetic compounds were added to a final concentration of 200 µg/mL. To this, 15 μL phosphate buffer, […] α-amylase enzyme and 40 μL starch solution were added stepwise. The microplate was incubated at 50 °C for 30 min. […] The formula used to calculate the percent enzyme inhibition is:% Enzyme inhibition = [(As − An) ÷ (Ab − An] × 100
As = sample’s absorbance; An = negative’s absorbance; Ab = blank’s absorbance

The test system of data set [2] is carrageenan-induced paw edema. The data set can be described thus: Carrageenan-induced paw edema (in vivo anti-inflammatory activity). More on the design: species or system BALB/C albino mice; unit not given beside the values. Conditions: 10 mg/kg, mice, n = 5. How it is done: At 7–8 weeks old, male BALB/C albino mice (29–35 g), were purchased from The National Institute of Health (NIH), Islamabad, Pakistan. Five animals were housed per group and placed in a controlled temperature and humidity-controlled room (22 °C and 66 ± 5%, respectively) in a 12 h light–dark cycle and provided with water and food ad libitum. Ethical approval was taken from the bio-ethical committee of Quaid-I-Azam University (Approval No. BEC-FBS-QAU2018-119) and all protocols were conducted following the Ethical Guide to the Code of Practice for the Housing and Care of Animals Act 1986 (ARRIVE (Animal Research: Reporting In Vivo Experiments) guidelines). The anti-inflammatory activity of the synthesized compounds was evaluated by using the carrageenan-induced rat paw edema assay. To determine the dose response of tetrahydroquinoline derivatives, animals were first given a dose of 0.1, 1 and 10 mg/kg against 100 µL carrageenan (1% solution in normal saline)/paw. Treatment was given 60 min before carrageenan injection. Readings were taken at 4 h post carrageenan injection. The in vivo anti-inflammatory activity was performed following the procedure described by Koksal, et al. in 2017. Paw edema was induced by injecting 100 µL of 1% sterile carrageenan solution into the right hind paw of mice. Synthesized compounds (10 mg/kg), vehicle (saline with 2% DMSO) and drug (acetylsalicylic acid, ASA 10 mg/kg) were administered to the mice orally by gastric intubation 60 min before injecting carrageenan into the right hind paw. The decrease in edema was measured by vernier calipers every 2 h.

The subject of data set [3] is NO generated by LPS-induced macrophages. The data set is described as follows: Nitric oxide assay (Griess) in LPS-induced macrophages. Type of data set: cell-based, murine. The settings on record: for activity at 1 µM / activity at 10 µM / activity at 50 µM / activity at 100 µM: 18 h, LPS 1 µg/mL, read-out: % NO Production (Mean ± SEM). How it is done: A Griess reagent, a spectrophotometric determination of nitrite level, was carried out to measure the nitrite level in the conditioned medium of macrophages treated with lipopolysaccharide (LPS). Sodium nitrite (NaNO2) was used as a standard compound for the standard curve (Figure 8). The NO concentrations were obtained using the standard curve equation: y = 0.0083x + 0.0017, R^2 = 0.9999, where y is the absorbance at 540 nm and x is the NO concentration in µM. The inhibitory activity of the tested compounds towards NO generated by LPS-induced macrophages was obtained from the calculated value of x.
The anti-inflammatory effect of the synthesized compounds in murine macrophages was evaluated by using the Griess reaction method, described previously. In brief, 1 × 10^6 were plated in a 96-well plate and incubated in a 5% CO2 incubator at 37 °C for 24 h, pre-treated with different concentrations (100 µM, 50 µM, 10 µM and 1 µM) of synthetic compounds for another 2 h and challenged with LPS (1 µg/mL) for an additional 18 h. Equal volumes of Griess reagent (1% sulphanilamide in 50% phosphoric acid and 0.1% naphthyl ethylenediamine dihydrochloride in distilled water and vortexed) and culture medium were mixed and the absorbance was taken at 540 nm. Lipopolysaccharide (LPS) was taken as a blank and piroxicam was taken as a positive control. A t-test was applied to determine the significance of the results.
For orientation: Nitrite, measured by Griess reagent, commonly stands in for NO production.

Data set [4] can be described thus: DPPH free radical scavenging assay. Conditions: mean ± SEM, n = 3; for IC50 (DPPH radical scavenging): concentration to scavenge 50% of the DPPH radicals. How it is done:
The % free radical scavenging activity (%FRSA) of the synthetic compounds was evaluated by the discoloration of an unstable DPPH reagent to the stable yellow-colored 2,2-diphenyl-1-picrylhydrazine molecule by accepting one electron from a donor antioxidant; the mechanism is shown in Scheme 2.
The % FRSA (free radical scavenging activity) of the synthetic compounds was determined by using the method of Tai et al. with slight modifications. The antioxidant potential was determined by detecting the capacity of the synthetic compounds to quench the DPPH free radicals. The synthetic compounds were taken in a 96-well plate at three-fold concentrations of 200 µg/mL, 66.6 µg/mL, 22.2 µg/mL and 7.4 µg/mL. DPPH free radicals were added to entire wells to make up the volume up to 200 µL. DMSO and ascorbic acid were taken as negative and positive controls, respectively. The absorbance was taken at 630nm using a microplate reader (ELx800 BioTek). The percentage of scavenging activity was calculated by the given formula:% scavenging activity = (1 − Abs/Abc) × 100
Abs = sample’s absorbance; Abc = control’s absorbance.
For orientation: DPPH is a stable violet radical that fades when it is reduced.

A further data set deals with brine shrimp nauplii. The data set is described as follows: Brine shrimp lethality bioassay. The format is in vivo. Conditions: 24 h, n = 3. How it is done: Brine shrimp eggs were hatched in a shallow rectangular plastic dish and filled with artificial seawater, which was prepared with a commercial salt mixture. In a 96-well plate, 150 µL of artificial seawater was added and 10 nauplii were added into this. Test compounds (400, 200, 100 and 50 µg/mL) were added into each well and the final volume was made up by adding the artificial seawater. The well plate was left uncovered under a lamp. The number of surviving shrimps were counted and recorded after 24 h. The test was repeated in triplicate. […] The percentage mortality (%M) was also calculated by dividing the number of dead nauplii by the total number and then multiplied by 100.

The mark [5] stands for this setting: 0 h after carrageenan injection.
[6] abbreviates: 2 h after carrageenan injection.
Where [7] appears, read: 4 h after carrageenan injection.
The mark [8] stands for this setting: 6 h after carrageenan injection.
Where [9] appears, read: Mus musculus, Macrophage, 50 µM.

As a reminder, the viability is a read-out of living cells in per cent, often relative to untreated cells. The term IC50 denotes the concentration needed to halve the response being measured. Turning to `c1ccc2c(c1)CCCN2CN1CCOCC1` [SF2, 4-((3,4-Dihydroquinolin—1(2H)-yl)methyl) morpholine], in data set [1], the viability at 24 h, 1 µM amounted to 76 ± 0.46%. Moreover, the viability at 24 h, 10 µM in data set [1] came out at 70 ± 0.91%. Further, the viability at 24 h, 50 µM in data set [1] was 60 ± 0.91%. In data set [1], the viability at 24 h, 100 µM was found to be 50 ± 1.52%. Further, the 50% inhibitory concentration (IC50) at 24 h in data set [1] is 26.8 ± 0.3 µM. Moreover, the “% inhibition of α-amylase enzyme” value in the data set on α-amylase enzyme is reported as 79.97%. The Paw thickness in data set [2] (setting [5]) was determined as 2.05 ± 0.05; in data set [2] (setting [6]), 2.11 ± 0.06; in data set [2] (setting [7]) it was 2.17 ± 0.03; in data set [2] (setting [8]) it was 2.23 ± 0.07. The activity at 1 µM in data set [3] (Mus musculus, Macrophage, 1 µM) came to 32.2 ± 0.46%. Besides, the activity at 10 µM in data set [3] (Mus musculus, Macrophage) is 27.1 ± 0.36%. Besides, the activity at 50 µM in data set [3] (setting [9]) turned out to be 22.1 ± 0.33%. The activity at 100 µM in data set [3] (Mus musculus, Macrophage) was 15.3 ± 0.29%. The “% DPPH Scavenging Activity” value in data set [4] (7.4 µg/mL) was 17.44 ± 0.26%; in data set [4] (22.22 µg/mL), 36.61 ± 0.22%; in data set [4] (66.66 µg/mL) it was 58.39 ± 0.27%; in data set [4] (200 µg/mL), 71.85 ± 0.27%. Moreover, the “IC50 (DPPH radical scavenging)” value in data set [4] turned out to be 42.55 ± 0.36 µg/mL (≈ 183 µM). In addition, the “LD50 ± SEM (brine shrimp lethality)” value in the data set on brine shrimp nauplii is 141.4 ± 2.1 µg/mL.

On to `c1ccc2c(c1)CCCN2CN1CCCC1` [SF3, 1-(Pyrollidin-1-ylmethyl) -1,2,3,4-tetrahydroquinoline], for which the viability at 24 h, 1 µM in data set [1] was determined as 83 ± 0.63%. In addition, the viability at 24 h, 10 µM in data set [1] was found to be 78 ± 0.74%. The viability at 24 h, 50 µM in data set [1] was 72 ± 1.34%. The viability at 24 h, 100 µM in data set [1] worked out at 41 ± 1.07%. Further, inhibition in data set [1] was half-maximal at 29.1 ± 0.5 µM (IC50 at 24 h). For the same compound, the Paw thickness in data set [2] (setting [5]) is 2.05 ± 0.06; in data set [2] (setting [6]), 2.16 ± 0.05; in data set [2] (setting [7]), 2.22 ± 0.02; in data set [2] (setting [8]) it was 2.28 ± 0.07. The activity at 1 µM in data set [3] (Mus musculus, Macrophage, 1 µM) is 33.2 ± 0.47%. Also, the activity at 10 µM in data set [3] (Mus musculus, Macrophage) came out at 29.6 ± 0.42%. Also, in data set [3] (setting [9]), the activity at 50 µM came out at 23.8 ± 0.39%. Further, the activity at 100 µM in data set [3] (Mus musculus, Macrophage) is 19.7 ± 0.37%. The “% DPPH Scavenging Activity” value in data set [4] (7.4 µg/mL) is reported as 3.76 ± 0.125%; in data set [4] (22.22 µg/mL), 9.85 ± 0.18%; in data set [4] (66.66 µg/mL), 18.32 ± 0.91%; in data set [4] (200 µg/mL) it was 27.19 ± 0.31%. For the same compound, the “IC50 (DPPH radical scavenging)” value in data set [4] is given as 52.75 ± 0.28 µg/mL (≈ 244 µM). Besides, the “LD50 ± SEM (brine shrimp lethality)” value in the data set on brine shrimp nauplii was found to be 102 ± 1.98 µg/mL.

What is called inhibition is the relative decrease from the control value, in per cent. Turning to `CC(=O)N(CN1CCCc2ccccc21)c1ccc(O)cc1` [SF13, N-((3,4-dihydroquinolin-1(2H)-yl)methyl)-N-(4-hydroxyphenyl) acetamide], the viability at 24 h, 1 µM in data set [1] stood at 85 ± 0.93%. For the same compound, in data set [1], the viability at 24 h, 10 µM is 82 ± 0.66%. The viability at 24 h, 50 µM in data set [1] was determined as 73 ± 1.01%. In data set [1], the viability at 24 h, 100 µM was 60 ± 1.24%. In data set [1], this compound yielded an IC50 at 24 h of 41.4 ± 0.69 µM. Besides, in the data set with α-amylase enzyme, the “% inhibition of α-amylase enzyme” value is reported as 10.51%. Further, the Paw thickness in data set [2] (setting [5]) was 2.04 ± 0.07; in data set [2] (setting [6]), 2.18 ± 0.03; in data set [2] (setting [7]), 2.26 ± 0.06; in data set [2] (setting [8]) it was 2.31 ± 0.07. In data set [3] (50 µM), the “NO level scavenged (maximum)” value is 85%. Moreover, in data set [3] (Mus musculus, Macrophage, 1 µM), the activity at 1 µM came to 25.1 ± 0.59%. Moreover, in data set [3] (Mus musculus, Macrophage), the activity at 10 µM amounted to 22.2 ± 0.52%. Further, in data set [3] (setting [9]), the activity at 50 µM was 15.6 ± 0.47%. The activity at 100 µM in data set [3] (Mus musculus, Macrophage) was 14.5 ± 0.44%. In addition, the inhibition at 1 µM in data set [3] (Mus musculus, Macrophage, 1 µM, read-out: NO maximum inhibition) was 75%. Besides, the “% DPPH Scavenging Activity” value came to 1.98 ± 0.20% in data set [4] (7.4 µg/mL), 4.44 ± 0.18% in data set [4] (22.22 µg/mL), 11.78 ± 0.15 s % in data set [4] (66.66 µg/mL) and 19.34 ± 0.34% in data set [4] (200 µg/mL). In addition, the “LD50 ± SEM (brine shrimp lethality)” value in the data set with brine shrimp nauplii worked out at 204 ± 1.67 µg/mL.
